Assay results as given in the supplement of paper PMC10307832.

compound: NC(=O)c1ccc(N(C(N)=O)c2c(F)cccc2F)nc1-c1ccc(F)cc1F [VX-702] + CCNC(=O)c1noc(-c2cc(C(C)C)c(O)cc2O)c1-c1ccc(CN2CCOCC2)cc1 [Luminespib] (partner 0.01 µM); test: relative viability (nuclei count vs DMSO), 5 days (fraction); higher = more cells survive; settings: first compound 0.02 µM
Method in brief: (§1)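 After 5 days of treatment, lung cancer cells in 1536-well plates were fixed and stained in a single step (final 0.05% Triton X-100, 1% formaldehyde, 1 ug/ml Hoechst) and their nuclei counted on 4× images. Treatment had been applied by pin tool the day after seeding as one drug alone or as a fixed anchor-drug dose with five library-drug doses (not always all listed) in √10 steps. Relative viability is the nuclei count of treated wells divided by that of vehicle wells, and values are medians of duplicate plates.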

Cell Line | relative viability
SK-LU-1 | 0.211
NCI-H1793 | 0.165
NCI-H23 | 0.196
SW 1573 | 0.215
NCI-H838 | 0.332
EPLC-272H | 0.344
NCI-H3122 | 0.0998
NCI-H1915 | 0.84
NCI-H727 | 0.306
NCI-H1975 | 0.198
LK-2 | 0.199
NCI-H2087 | 0.162
LCLC-97TM1 | 0.613
NCI-H661 | 0.905
NCI-H2405 | 0.659
NCI-H1993 | 0.645
PC-3 [JPC-3] | 0.636
NCI-H2009 | 1.13
NCI-H2347 | 0.446
NCI-H520 | 0.189
LXF-289 | 0.689
NCI-H358 | 0.245
LC-2-ad | 0.979
201T | 1
NCI-H1666 | 0.954
NCI-H2023 | 0.692
NCI-H322M | 0.856

same assay, conditions: first compound 0.2 µM

Cell Line | relative viability
NCI-H1792 | 0.355
HCC-15 | 0.295
LU99A | 0.204
EKVX | 0.822
COR-L23 | 0.719
NCI-H1437 | 1.14
RERF-LC-KJ | 1.2
NCI-H1734 | 0.228
BEN | 0.221
NCI-H460 | 0.0359
H3255 | 0.803
SK-LU-1 | 0.177
NCI-H1793 | 0.217
NCI-H23 | 0.189
SW 1573 | 0.138
NCI-H838 | 0.333
EPLC-272H | 0.694
NCI-H3122 | 0.0746

Cell Line | relative viability
NCI-H1915 | 0.739
NCI-H727 | 0.345
NCI-H1975 | 0.275
LK-2 | 0.175
NCI-H2087 | 0.141
LCLC-97TM1 | 0.768
NCI-H661 | 0.919
NCI-H2405 | 0.641
NCI-H1993 | 0.741
PC-3 [JPC-3] | 0.695
NCI-H2009 | 1.07
NCI-H520 | 0.245
LXF-289 | 0.732
NCI-H358 | 0.416
LC-2-ad | 1.01
201T | 1.04
NCI-H2023 | 0.829
NCI-H322M | 0.917

same assay, conditions: first compound 0.6325 µM

Cell Line | relative viability
NCI-H1792 | 0.376
HCC-15 | 0.288
LU99A | 0.267
EKVX | 0.878
COR-L23 | 0.688
NCI-H1437 | 1.14
RERF-LC-KJ | 1.12
NCI-H1734 | 0.173
BEN | 0.49
NCI-H460 | 0.0358
H3255 | 0.957
SK-LU-1 | 0.2
NCI-H1793 | 0.213
NCI-H23 | 0.274
SW 1573 | 0.261
NCI-H838 | 0.273
EPLC-272H | 0.352
NCI-H3122 | 0.0992
NCI-H1915 | 0.765

Cell Line | relative viability
NCI-H727 | 0.296
NCI-H1975 | 0.233
LK-2 | 0.175
NCI-H2087 | 0.169
LCLC-97TM1 | 0.747
NCI-H661 | 0.995
NCI-H2405 | 0.799
NCI-H1993 | 0.777
PC-3 [JPC-3] | 0.686
NCI-H2009 | 1.19
NCI-H2347 | 0.909
NCI-H520 | 0.221
LXF-289 | 0.659
NCI-H358 | 0.583
LC-2-ad | 1.01
201T | 0.992
NCI-H1666 | 1.07
NCI-H2023 | 0.826
NCI-H322M | 0.759

same assay, conditions: first compound 2 µM

Cell Line | relative viability
NCI-H1792 | 0.523
HCC-15 | 0.349
LU99A | 0.189
EKVX | 0.942
COR-L23 | 0.761
NCI-H1437 | 1.4
RERF-LC-KJ | 1.67
NCI-H1734 | 0.203
BEN | 0.331
NCI-H460 | 0.0313
H3255 | 1.11
SK-LU-1 | 0.207
NCI-H1793 | 0.192
NCI-H23 | 0.215
SW 1573 | 0.232
NCI-H838 | 0.299
EPLC-272H | 0.272
NCI-H3122 | 0.0951
NCI-H1915 | 0.916

Cell Line | relative viability
NCI-H727 | 0.294
NCI-H1975 | 0.246
LK-2 | 0.178
NCI-H2087 | 0.138
LCLC-97TM1 | 0.743
NCI-H661 | 1.06
NCI-H2405 | 0.73
NCI-H1993 | 0.818
PC-3 [JPC-3] | 0.668
NCI-H2009 | 1.3
NCI-H2347 | 0.552
NCI-H520 | 0.239
LXF-289 | 0.789
NCI-H358 | 0.4
LC-2-ad | 1.36
201T | 1.07
NCI-H1666 | 1.01
NCI-H2023 | 0.974
NCI-H322M | 0.88

compound: CC(C)(C)c1nc(-c2cccc(NS(=O)(=O)c3c(F)cccc3F)c2F)c(-c2ccnc(N)n2)s1 [Dabrafenib] + Cc1nc(NC(=O)N2CCC[C@H]2C(N)=O)sc1-c1ccnc(C(C)(C)C(F)(F)F)c1 [Alpelisib] (partner 2 µM); test: as above; settings: first compound 0.003 µM
Method in brief: as §1

Cell Line | relative viability
HCC-15 | 0.831
LU99A | 0.563
EKVX | 0.923
COR-L23 | 0.715
NCI-H1437 | 1.03
RERF-LC-KJ | 0.73
NCI-H460 | 0.508
H3255 | 0.647
SK-LU-1 | 0.915
NCI-H1793 | 0.676
SW 1573 | 0.765
NCI-H838 | 1.01
NCI-H3122 | 0.877
NCI-H1915 | 1.03
NCI-H1975 | 0.68
LK-2 | 1.05
NCI-H2087 | 1.19
